≈ marks a conversion by molar mass, not a printed value. Read-outs that look alike come from different tables or passages of the source.
Legend:
[1] = tested on: Canadida albicans ATCC 64550; experiment: In vitro antifungal activity, MIC by broth microdilution (Candida species); format: cell-based; conditions: ATCC64550, lowest concentration causing at least 80% growth inhibition, RPMI1640 pH 7.0, 35° C., 24-72 hours, read-out: MIC value C.a. (1)
Protocol: (§1) The antifungal activities of test compounds were assessed according to their minimum inhibitory concentrations (MICs) which were measured by the methods described below.
(§2) 1(i) Measurement Method for Candida Species
(§3) A modified version of the procedure described in Japanese Journal of Medical Mycology, 36, 62 (1995) was used, MICs being determined by the broth microdilution method. Each test compound was dissolved in dimethyl sulfoxide (DMSO). Serial two-fold dilutions of each compound were prepared with DMSO and then final dilutions were prepared with RPMI1640 medium (product of Dainippon Pharmaceutical Co., Ltd.) which was buffered to pH 7.0 with 0.165 M 3-(morpholino)propanesulfonic acid (MOPS). […] Colonies of the test fungi were suspended in physiological saline followed by adjustment to 5.0×10^2 to 2.5×10^3 cells/ml with RPM11640 medium which was buffered to pH 7.0 with 0.165 M MOPS. 100 μl of the fungal suspension were added to each of the wells of microtitre plates and then 100 μl of each diluted test compound were added to one of said wells and mixed with the fungal suspension therein, before incubating at 35° C. for 24-72 hours. […] The MICs were defined as the lowest compound concentrations causing at least 80% growth inhibition when compared with the control.
b) C.a. (1): Canadida albicans ATCC 64550.

[2] = Acid stability test (half-life in 0.01 N HCl); format: physicochemical; conditions: 0.01 N HCl (pH 2.0), initial 50 μg/ml, 37° C., HPLC, read-out: t1/2, stability in acidic solution
Protocol: A small amount of the solution was taken from the reaction solution at predetermined time intervals and the reaction was stopped in these samples by neutralizing with an aqueous sodium hydroxide solution. Quantitative determination of the residual rate of the test compound in the solution was determined by HPLC.
The half-life (t½) of the test compound in 0.01 N HCl was determined according to the following equation using the degradation rate constant kdeg which was determined by semi-logarithmic regression analysis of the residual rate in the solution.

[3] = Oral absorption rate (bioavailability) in SD rats; format: in vivo; conditions: rat, blood; fasted SD rats; oral 20 mg/kg vs intravenous 2 mg/kg in PEG 400; AUCpo(0-48 h)/AUCiv(0-∞), dose-corrected; read-out: BA (bioavailability)
Protocol: A test compound in polyethylene glycol 400 (PEG 400) was administered either orally (4 animals) or intravenously into the caudal vein (3 animals) of SD rats (age 7 weeks) which had fasted overnight. The oral dose of the test compound was 20 mg per kg of rat body weight. The intravenous dose of the test compound injected into the caudal vein was 2 mg per kg of rat body weight. The amount of PEG 400 used was 1 ml per kg of rat body weight for both oral and intravenous administration. The bioavailability (BA) values were calculated according to the following equation using the integrated values of the blood concentration of the test compound up to 48 hours after oral administration [AUCpo(0-48 h)], and the integrated values of the blood concentration extrapolated from 0 to infinite time after intravenous administration into the caudal vein [AUCiv(0-∞)].
BA(%)={[(AUCpo(0-48))/(dosepo)]/[(AUCiv(0-∞))/(doseiv)]}×100
The larger the value of BA, the higher the oral absorption rate. The results for the compound of formula (Ib) of the present invention and those for Comparative Compounds A, B and C are shove in Table 3.

[4] = tested on: Aspergillus fumigatus SANK 10569; experiment: In vitro antifungal activity, MIC by broth microdilution (Aspergillus species); format: cell-based; conditions: SANK10569, lowest concentration causing at least 80% growth inhibition, RPMI1640 pH 7.0, 30° C., 24-72 hours, read-out: MIC value A.f.
Protocol: The antifungal activities of test compounds were assessed according to their minimum inhibitory concentrations (MICs) which were measured by the methods described below. 1(iii) Measurement Method for Aspergillus Species A modified version of the protocol in Antimicrob. Agents Chemother., 39, 314 (1995) was used, MICs being determined by the broth microdilution method. Test compounds were dissolved in dimethyl sulfoxide (DMSO). Serial two-fold dilutions of each compound were prepared with DMSO and then final dilutions were prepared with RPMI1640 medium (product of Dainippon Pharmaceutical Co., Ltd.) buffered to pH 7.0 with 0.165 M MOPS.

[5] = tested on: Canadida albicans TIMM 3164; experiment: In vitro antifungal activity, MIC by broth microdilution (Candida species); format: cell-based; conditions: TIMM3164, lowest concentration causing at least 80% growth inhibition, RPMI1640 pH 7.0, 35° C., 24-72 hours, read-out: MIC value C.a. (2)
Protocol: as §1, §2, §3
c) C.a. (2): Canadida albicans TIMM 3164.

[6] = tested on: Canadida albicans TIMM 3165; experiment: as above; format: cell-based; conditions: TIMM3165, lowest concentration causing at least 80% growth inhibition, RPMI1640 pH 7.0, 35° C., 24-72 hours, read-out: MIC value C.a. (3)
Protocol: as §1, §2, §3
d) C.a. (3): Canadida albicans TIMM 3165.

[7] = tested on: Cryptococcus neoformans TIMM 0362; experiment: In vitro antifungal activity, MIC by broth microdilution (Cryptococcus neoformans); format: cell-based; conditions: TIMM0362, lowest concentration causing at least 50% growth inhibition (absorbance 485 nm), yeast nitrogen base pH 7.0, 35° C., 48-72 hours, read-out: MIC value C.n.
Protocol: as §1
1(ii) Measurement Method for Cryptococcus neoformans
A modified version of the Broth Dilution Antifuinal Susceptibility Testing of Yeast; Approved Standard M27-A (Vol. 17, No. 9, June 1997, NCCLS) was used, MICs being determined by the broth microdilution method. Each test compound was dissolved in DMSO. Serial two-fold dilutions of each compound were prepared with DMSO and final dilutions were prepared with yeast nitrogen base medium (product of Difco Laboratories) buffered to pH 7.0 with 0.165 M MOPS. […] Colonies of the test fungi were suspended in physiological saline followed by adjustment to 5.0×10^3 to 2.5×10^4 cells/ml with yeast nitrogen base medium buffered to pH 7.0 with 0.165 M MOPS. 100 μl of the fungal suspension were added to each of the wells of microtitre plates and then 100 μl of each diluted test compound were added to one of said wells and mixed with the fungal suspension therein, before incubating at 35° C. for 48-72 hours. […] The MICs were defined as the lowest compound concentrations causing at least 50% growth inhibition when compared with the control as measured by light absorbance at 485 nm.
e) C.n.: Cryptococcus neoformans TIMM 0362.

[8] = 0.01 N hydrochloric acid with 30% acetonitrile

MIC [1] [µg/mL]	half-life at 50 μg/ml [2, 8] [min]	bioavailability [3] [%]	MIC [4] [µg/mL]	MIC [5] [µg/mL]	MIC [6] [µg/mL]	MIC [7] [µg/mL]	half-life at 50 μg/ml ([2]; buffer, 30% acetonitrile) [min]	Structure (SMILES)
0.5 to 1 (≈ 0.953 to 1.91 µM)	3.12	50.7	0.031 (≈ 0.0591 µM)	0.016 (≈ 0.0305 µM)	0.125 to 0.25 (≈ 0.238 to 0.477 µM)	0.016 (≈ 0.0305 µM)		C[C@@H](S[C@H]1CO[C@H](/C=C/C=C/c2ccc(C#N)cc2)OC1)[C@](O)(Cn1cncn1)c1ccc(F)cc1F [Comparative Compound (A), (2R,3R)-3-[[trans-2-[(1E,3E)-4-(4-Cyanophenyl)-1,3-butadien-1-yl]-1,3-dioxan-5-yl]thio]-2-(2,4-difluorophenyl)-1-(1H-1,2,4-triazol-1yl)-2-butanol]
0.5 (≈ 0.934 µM)	1.54	6.24	0.125 (≈ 0.233 µM)	0.031 to 0.063 (≈ 0.0579 to 0.118 µM)	0.125 to 0.25 (≈ 0.233 to 0.467 µM)	≤ 0.008		C[C@@H](S[C@H]1CO[C@H](/C=C/C=C/c2ccc(F)cc2F)OC1)[C@](O)(Cn1cncn1)c1ccc(F)cc1F [Comparative Compound (B)]
	2.42	57.8						CC(C[C@H]1CO[C@H](/C=C/C=C/c2ccc(C#N)cc2F)OC1)C(O)(Cn1cncn1)c1ccc(F)cc1F (some centres unmarked) [Comparative Compound (C)]
0.25 (≈ 0.461 µM)		123	0.031 (≈ 0.0571 µM)	≤ 0.008	0.063 (≈ 0.116 µM)	≤ 0.008	6.4	C[C@@H](S[C@H]1CO[C@H](/C=C/C=C/c2ccc(C#N)cc2F)OC1)[C@](O)(Cn1cncn1)c1ccc(F)cc1F [Compound (Ib), (2R,3R)-3-[[trans-2-[(1E,3E)-4-(4-Cyano-2-fluorophenyl)-1,3-butadien-1-yl]-1,3-dioxan-5-yl]thio]-2-(2,4-difluorophenyl)-1-(1H-1,2,4-triazol-1-yl)-2-butanol]

From patent publication US6392082B1, “Triazole derivatives having antifungal activity” (Sankyo Company, Limited, priority 1999, dated 2002)
